The source of these data is patent US11325921B2, “Optically active crosslinked cyclic secondary amine derivative” (Sumitomo Dainippon Pharma Co., Ltd., priority 2018, dated 2022).

In assay [1] the target is Menin-MLL binding (His-Menin1-615 / MLL1-172-FLAG) (Homo sapiens (Human), UniProt O00255). Put plainly: Test 1: inhibition of the Menin-MLL binding (HTRF). The note with it: for Menin-MLL binding inhibition activity (in words): summary of the table. The protocol: Menin1-615 wherein 6× His tag and HA tag are inserted in the N-terminus, and myc tag is inserted in the C-terminus (hereinafter, referred to as His-Menin1-615), was diluted with an assay buffer (25 mmol/L HEPES, 150 mmol/L NaCl, 1 mmol/L dithiothreitol, 0.5% (w/v) Tween 80, 0.3% (w/v) BSA, 0.3% (w/v) skim milk) to adjust the final concentration Lo 30 nmol/L. The test compounds were also diluted with the assay buffer to adjust each concentration of the test compounds to 0.005 to 5 μmol/L. The prepared His-Menin1-615 and test compounds were added to a light-shielding 384-well low-volume plate (Corning, #4514) in 2 μL/well and 6 μL/well, respectively, and the plate was covered with a lid for light-shielding (Corning, r-3935), and incubated at room temperature for 3 hours. After the incubation, MLL1-172 wherein FLAG tag is inserted in the C-terminus (MLL1-172-FLAG), was separately diluted with the assay buffer to adjust the final concentration to 50 nmol/L. The prepared MLL1-172-FLAG was added to the above plate in 2 μL/well, and the plate was covered with a lid for light-shielding and incubated at room temperature for an hour.
Menin-MLL binding (His-Menin1-615 / MLL1-172-FLAG), sequence (O00255 other isoform, or with tags, fused parts or gaps): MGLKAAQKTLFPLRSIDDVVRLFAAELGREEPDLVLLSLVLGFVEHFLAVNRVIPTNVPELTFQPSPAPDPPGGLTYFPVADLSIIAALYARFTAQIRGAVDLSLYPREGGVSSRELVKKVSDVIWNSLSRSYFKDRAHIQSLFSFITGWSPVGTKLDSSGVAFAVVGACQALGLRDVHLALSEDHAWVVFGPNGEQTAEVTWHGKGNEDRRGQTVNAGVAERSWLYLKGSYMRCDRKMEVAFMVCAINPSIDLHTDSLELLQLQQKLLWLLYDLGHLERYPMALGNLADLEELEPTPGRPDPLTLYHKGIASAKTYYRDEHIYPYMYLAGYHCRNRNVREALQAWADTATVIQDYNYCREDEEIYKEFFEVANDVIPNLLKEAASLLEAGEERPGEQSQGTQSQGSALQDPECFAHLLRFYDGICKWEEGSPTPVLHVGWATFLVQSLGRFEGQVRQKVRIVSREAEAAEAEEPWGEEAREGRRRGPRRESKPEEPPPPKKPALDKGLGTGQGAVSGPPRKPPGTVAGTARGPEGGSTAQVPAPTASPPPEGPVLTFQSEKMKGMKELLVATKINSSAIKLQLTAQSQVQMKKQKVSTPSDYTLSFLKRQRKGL
Then, anti-6HIS-d2 antibody (cisbio, 61HISDLA) and anti-FLAGM2-K antibody (cisbio, 61FG2KLA) were diluted with an antibody dilution buffer (50 mmol/L Tris, 150 mmol/L NaCl, 800 mmol/L KF, pH 7.4) to adjust the final concentration to 1.4 μg/mL to prepare an antibody mixture. The prepared antibody mixture was added to the above plate in 10 μL/well, and the plate was covered with a lid and incubated at 4° C. for 17 to 24 hours. After the incubation, the signal was detected with RUBYstar (BMG LABTECH). The binding inhibition rate (%) at each concentration of the test compounds was calculated from the following formula, and the IC50 value was obtained, that corresponds to the concentration of the test compound at which the binding inhibition rate is 50%.

The subject of assay [2] is MEIS1 mRNA in MV4; 11 cells. Put plainly: Test 3: inhibition of mRNA transcription, MEIS1. In kind it is cell-based. The following applies: for mrna remaining at 1 µM: Homo sapiens, MV4, 20 to 24 hours, fitted with GAPDH, read-out: mRNA at 1 μM (% control) MEIS1; for mRNA transcription inhibition activity (in words): MEIS1 and HOXA9, MV4, 1 μM, summary of the table. Here is the method:
(§1) MV4; 11 cells were obtained from American Type Culture Collection (ATCC). The cells were cultured at 37° C. in the presence of 5% CO2 in RPMI 1640 medium containing 10% fetal bovine serum and 1% penicillin/streptomycin. To the MV4; 11 cells was added each test compound to adjust the final concentration to 1 μmol/L, and the cells were cultured at 37° C. in the presence of 5% CO2 for 20 to 24 hours. After the incubation, the total RNA was extracted from the cells with RNeasy™ Mini Kit (QIAGEN, 74106), and cDNA was synthesized with Superscript™ VILO™ cDNA Synthesis Kit (Invitrogen, #11754250). By using TaqMan™ Gene Expression Master Mix (Applied Biosystems, 4369016) and TaqMan™ probe (Applied Biosystems), the expression level of mRNA was quantified from the obtained cDNA with 7900HT (Applied biosystems). The mRNA expression level of each obtained gene was fitted with the expression level of mRNA of GAPDH.

The subject of assay [3] is HOXA9 mRNA in MV4; 11 cells. Put plainly: Test 3: inhibition of mRNA transcription, HOXA9. In kind it is cell-based. The note with it: Homo sapiens, 20 to 24 hours, fitted with GAPDH, read-out: mRNA at 1 μM (% control) HOXA9. Here is the method:
as §1

The subject of a further assay is MOLM-13 cells. Put plainly: Test 2: inhibition of cell proliferation, MOLM-13. Format: cell-based. The note with it: Homo sapiens, 168 h, cultured 7 days, PrestoBlue. Here is the method:
(§2) RS4; 11 cells were obtained from American Type Culture Collection (ATCC). The cells were cultured at 37° C. in the presence of 5% CO2 in RPMI 1640 medium containing 10% fetal bovine serum and 1% penicillin/streptomycin. MOLM-13 cells were separately obtained from DSMZ. The cells were cultured at 37° C. in the presence of 5% CO2 in RPMI 1640 medium containing 20% fetal bovine serum and 1% penicillin/streptomycin.
(§3) The cells were plated to a 96-well plate in 2000 cells/well, each test compound was added thereto to adjust the final concentration of DMSO to 0.1% of DMSO, and the cells were cultured for 7 days. After the cultivation, the cell viability was calculated with PrestoBlue™ Cell Viability Reagent (Invitrogen, A13261). The IC50 value was calculated from a survival curve, that corresponds to the concentration of the test compound at which the cell proliferation inhibition rate is 50%.

The next assay relates to RS4; 11 cells. Put plainly: Test 2: inhibition of cell proliferation, RS4; 11. In kind it is cell-based. The following applies: for IC50: Homo sapiens, 168 h, 11 cells, cultured 7 days, PrestoBlue; for cell proliferation inhibition activity (in words, good) / cell proliferation inhibitory activity (in words, potent): 11 and MOLM-13 cells, summary of the table; for cell proliferation inhibitory activity (in words, potent): 'especially'. Here is the method:
as §2, §3

The IC50 is the midpoint of a concentration-inhibition curve. Higher therefore signals lower potency. Turning to `O=C([C@H]1N[C@H]2CC[C@@H]1C(F)(F)C2)N1CC2(C1)CN(c1c(C(F)(F)F)cnc3sc(CC(F)(F)F)cc13)C2` [Example 4, [(1S,3S,4S)-5,5-difluoro-2-azabicyclo[2.2.2]octan-3-yl]{6-[2-(2,2,2-trifluoroethyl)-5-(trifluoromethyl)thieno[2,3-b]pyridin-4-yl]-2,6-diazaspiro[3.3]heptan-2-yl}methanone], the IC50 in assay [1] is 0.14 µM; in the assay on MOLM-13 cells, 1.7 µM; in the assay on RS4; 11 cells, 0.78 µM. For the same compound, the mrna remaining at 1 µM was 65.4% in assay [2] and 60% in assay [3].

For `O=C([C@H]1N[C@H]2CC[C@@H]1C[C@@H]2O)N1CC2(C1)CN(c1c(C(F)(F)F)cnc3sc(CC(F)(F)F)cc13)C2` [Example 6, [(1S,3S,4R,6S)-6-hydroxy-2-azabicyclo[2.2.2]octan-3-yl]{6-[2-(2,2,2-trifluoroethyl)-5-(trifluoromethyl)thieno[2,3-b]pyridin-4-yl]-2,6-diazaspiro[3.3]heptan-2-yl}methanone], the IC50 in assay [1] stood at 0.0273 µM; with MOLM-13 cells, 0.83 µM; with RS4; 11 cells, 0.58 µM. Besides, the mrna remaining at 1 µM in assay [2] was determined as 51.3%; in assay [3], 54.3%.

As for `O=C1C[C@@H]2CC[C@H]1[C@@H](C(=O)N1CC3(C1)CN(c1c(C(F)(F)F)cnc4sc(CC(F)(F)F)cc14)C3)N2` [Example 8, (1S,3S,4S)-3-{6-[2-(2,2,2-trifluoroethyl)-5-(trifluoromethyl)thieno[2,3-b]pyridin-4-yl]-2,6-diazaspiro[3.3]heptane-2-carbonyl}-2-azabicyclo[2.2.2]octan-5-one], the IC50 was 0.635 µM in assay [1], 1.1 µM in the assay with MOLM-13 cells and 0.33 µM with RS4; 11 cells. In addition, the mrna remaining at 1 µM worked out at 82.9% in assay [2] and 79.3% in assay [3].

Take `O=C([C@H]1N[C@H]2CC[C@@H]1C[C@H]2F)N1CC2(C1)CN(c1c(C(F)(F)F)cnc3sc(CC(F)(F)F)cc13)C2` [Example 10, [(1S,3S,4R,6R)-6-fluoro-2-azabicyclo[2.2.2]octan-3-yl]{6-[2-(2,2,2-trifluoroethyl)-5-(trifluoromethyl)thieno[2,3-b]pyridin-4-yl]-2,6-diazaspiro[3.3]heptan-2-yl}methanone]: the IC50 in assay [1] came out at 0.343 µM; in the assay on MOLM-13 cells, 2.1 µM; in the assay on RS4; 11 cells it was 0.81 µM. Further, the mrna remaining at 1 µM in assay [2] came out at 68.8%; in assay [3] it was 69.5%.

With `C=CCO[C@H]1C[C@H]2CC[C@@H]1N[C@@H]2C(=O)N1CC2(C1)CN(c1c(C(F)(F)F)cnc3sc(CC(F)(F)F)cc13)C2` [Example 11, {(1S,3S,4R,6S)-6-[(prop-2-en-1-yl)oxy]-2-azabicyclo[2.2.2]octan-3-yl}{6-[2-(2,2,2-trifluoroethyl)-5-(trifluoromethyl)thieno[2,3-b]pyridin-4-yl]-2,6-diazaspiro[3.3]heptan-2-yl}methanone], the results for the IC50 (in assay [1]; in the assay with MOLM-13 cells; with RS4; 11 cells) were 0.0539 µM, 0.73 µM and 0.63 µM, respectively. Besides, the values for the mrna remaining at 1 µM in assay [2] and in assay [3] were 60.7% and 64.5%, respectively.

Turning to `O=C([C@H]1N[C@H]2CC[C@@H]1C[C@@H]2OCc1ccccc1)N1CC2(C1)CN(c1c(C(F)(F)F)cnc3sc(CC(F)(F)F)cc13)C2` [Example 13, [(1S,3S,4R,6S)-6-(benzyloxy)-2-azabicyclo[2.2.2]octan-3-yl]{6-[2-(2,2,2-trifluoroethyl)-5-(trifluoromethyl)thieno[2,3-b]pyridin-4-yl]-2,6-diazaspiro[3.3]heptan-2-yl}methanone], the IC50 was 0.134 µM in assay [1], 0.81 µM in the assay on MOLM-13 cells and 0.62 µM with RS4; 11 cells. The mrna remaining at 1 µM came out at 57.3% in assay [2] and 63% in assay [3].

Consider `N#Cc1cnc2sc(CC(F)(F)F)cc2c1N1CC2(CN(C(=O)[C@H]3NC4CCC3CC4)C2)C1` [Example 20, 4-{6-[(3S)-2-azabicyclo[2.2.2]octane-3-carbonyl]-2,6-diazaspiro[3.3]heptan-2-yl}-2-(2,2,2-trifluoroethyl)thieno[2,3-b]pyridine-5-carbonitrile], for which, in assay [1], the IC50 turned out to be 0.0114 µM and the “Menin-MLL binding inhibition activity (in words)” value was “potent”. In assay [2], the mrna remaining at 1 µM was found to be 41.8% and the “mRNA transcription inhibition activity (in words)” value is recorded as “showed the mRNA transcription inhibition activity”. The mrna remaining at 1 µM in assay [3] stood at 59.3%. In the assay with MOLM-13 cells, this compound gave an IC50 of 0.22 µM. Moreover, in the assay with RS4; 11 cells, the “cell proliferation inhibition activity (in words, good)” value (“cell proliferation inhibition activity” for short) is “good”; the “cell proliferation inhibitory activity (in words, potent)” value was “potent”; the IC50 was 0.27 µM.

Consider `N#Cc1cnc2sc(CC(F)(F)F)cc2c1N1CC2(CN(C(=O)[C@H]3N[C@@H]4CC[C@H]3C4)C2)C1` [Example 21, 4-{6-[(1R,3S,4S)-2-azabicyclo[2.2.1]heptane-3-carbonyl]-2,6-diazaspiro[3.3]heptan-2-yl}-2-(2,2,2-trifluoroethyl)thieno[2,3-b]pyridine-5-carbonitrile], for which, in assay [1], the IC50 came to 0.0084 µM and the “Menin-MLL binding inhibition activity (in words)” value was “potent”. Besides, in assay [2], the mrna remaining at 1 µM was 40.9% and the “mRNA transcription inhibition activity (in words)” value is “showed the mRNA transcription inhibition activity”. The mrna remaining at 1 µM in assay [3] worked out at 52.1%. In the assay on MOLM-13 cells, this compound showed an IC50 of 0.24 µM. In the assay on RS4; 11 cells, the “cell proliferation inhibition activity” value is given as “good”; the “cell proliferation inhibitory activity (in words, potent)” value is recorded as “potent”; the IC50 was determined as 0.27 µM.

As to `N#Cc1cnc2sc(CC(F)(F)F)cc2c1N1CC2(CN(C(=O)[C@H]3N[C@H]4CC[C@@H]3C(=O)C4)C2)C1` [Example 25, 4-{6-[(1S,3S,4S)-5-oxo-2-azabicyclo[2.2.2]octane-3-carbonyl]-2,6-diazaspiro[3.3]heptan-2-yl}-2-(2,2,2-trifluoroethyl)thieno[2,3-b]pyridine-5-carbonitrile], the IC50 stood at 0.0902 µM in assay [1], 2.2 µM in the assay with MOLM-13 cells and 0.69 µM in the assay with RS4; 11 cells.

For the compound `O=C([C@H]1NC2CCC1CC2)N1CC2(C1)CN(c1c(C(F)F)cnc3sc(CC(F)(F)F)cc13)C2` [Example 26, [(3S)-2-azabicyclo[2.2.2]octan-3-yl]{6-[5-(difluoromethyl)-2-(2,2,2-trifluoroethyl)thieno[2,3-b]pyridin-4-yl]-2,6-diazaspiro[3.3]heptan-2-yl}methanone], in assay [1], the IC50 turned out to be 0.0447 µM and the “Menin-MLL binding inhibition activity (in words)” value is recorded as “potent”. Besides, in assay [2], the mrna remaining at 1 µM turned out to be 41.4% and the “mRNA transcription inhibition activity (in words)” value is given as “showed the mRNA transcription inhibition activity”. In addition, in assay [3], the mrna remaining at 1 µM worked out at 57.6%. In the assay on MOLM-13 cells, this compound returned a half-inhibitory concentration (IC50) of 0.68 µM. In addition, in the assay with RS4; 11 cells, the “cell proliferation inhibition activity” value is on record as “good” and half-maximal inhibition (IC50) required 0.29 µM.
